Reference: patent US8901111B2, “Aryl-substituted heterocyclic urea modulators of fatty acid amide hydrolase” (Janssen Pharmaceutica NV, priority 2009, dated 2014)
pIC50: −log10 of the molar value.

Legend:
thermal nociception [1] = settings: cited from earlier work
FAAH [2] = molecular target: T1, FAAH (Homo sapiens, UniProt O00519); settings: reported; cited from earlier work
T1 sequence (O00519 1-579): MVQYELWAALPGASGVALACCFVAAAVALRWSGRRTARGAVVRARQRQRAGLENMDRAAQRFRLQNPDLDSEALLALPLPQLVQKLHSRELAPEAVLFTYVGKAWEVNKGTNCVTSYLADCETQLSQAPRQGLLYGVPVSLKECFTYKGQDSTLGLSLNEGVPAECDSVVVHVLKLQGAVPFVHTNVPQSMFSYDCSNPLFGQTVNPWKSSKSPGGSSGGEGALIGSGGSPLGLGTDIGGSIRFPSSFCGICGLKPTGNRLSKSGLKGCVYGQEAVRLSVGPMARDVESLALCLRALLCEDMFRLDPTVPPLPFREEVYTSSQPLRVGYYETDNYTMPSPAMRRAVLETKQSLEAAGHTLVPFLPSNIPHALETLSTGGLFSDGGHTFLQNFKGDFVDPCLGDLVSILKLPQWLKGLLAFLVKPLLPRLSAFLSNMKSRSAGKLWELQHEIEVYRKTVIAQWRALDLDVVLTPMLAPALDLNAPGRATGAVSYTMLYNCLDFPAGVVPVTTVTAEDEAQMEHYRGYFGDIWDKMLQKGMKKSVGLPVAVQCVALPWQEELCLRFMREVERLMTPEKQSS

thermal nociception [3] = settings: rats; WO 04/033652; cited from earlier work
neuropathic pain = settings: rats; WO 02/087569; cited from earlier work
[4] = tested on: acute thermal nociception; settings: rats; WO 02/087569; cited from earlier work
anxiety = settings: rats; Kathuria 2003; cited from earlier work
[5] = Kathuria 2003; cited from earlier work
rat FAAH = molecular target: T2, rat FAAH (Rattus norvegicus, UniProt P97612); experiment: Assay Method 2: FAAH assay, 3H-anandamide hydrolysis in homogenate of cells transfected with rat FAAH; type: biochemical; settings: cell homogenate, 3H-AEA 80 nM, 1 h at rt, average of results
T2 construct: expressed in transfected cells; crude homogenate
T2 sequence (P97612 1-579): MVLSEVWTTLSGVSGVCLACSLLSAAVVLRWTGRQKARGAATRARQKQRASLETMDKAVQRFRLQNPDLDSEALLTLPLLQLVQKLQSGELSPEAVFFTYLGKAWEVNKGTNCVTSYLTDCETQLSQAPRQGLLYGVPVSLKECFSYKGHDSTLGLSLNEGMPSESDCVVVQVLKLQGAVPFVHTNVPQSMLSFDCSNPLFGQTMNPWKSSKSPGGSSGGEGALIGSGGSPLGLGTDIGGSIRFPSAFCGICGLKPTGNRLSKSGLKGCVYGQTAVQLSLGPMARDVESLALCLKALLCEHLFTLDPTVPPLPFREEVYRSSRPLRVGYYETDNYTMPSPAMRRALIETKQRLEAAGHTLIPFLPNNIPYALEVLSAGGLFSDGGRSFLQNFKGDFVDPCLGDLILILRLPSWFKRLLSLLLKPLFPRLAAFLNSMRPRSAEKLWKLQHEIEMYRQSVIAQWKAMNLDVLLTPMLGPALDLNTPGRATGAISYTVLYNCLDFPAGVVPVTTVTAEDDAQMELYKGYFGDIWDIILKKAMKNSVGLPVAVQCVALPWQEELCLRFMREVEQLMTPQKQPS
In short: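 Homogenate of SK-N-MC cells stably transfected with rat FAAH, in pH 9 Tris/EDTA/glycerol/Triton buffer, incubated 1 h at rt with 80 nM final [1-3H-ethanolamine]anandamide. Released 3H-ethanolamine separated from substrate on activated charcoal filters by centrifugation and quantified by scintillation counting.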

FAAH [6] = molecular target: T1, FAAH; experiment: Assay Method 1: FAAH assay, 3H-anandamide hydrolysis in homogenate of cells transfected with human FAAH; type: biochemical; parameters: expressed in transfected cells; crude homogenate (T84 cell pellets named as alternative); settings: cell homogenate, 3H-AEA 80 nM, 1 h at rt, average of results
In short: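 Homogenates of SK-N-MC cells stably transfected with human FAAH (or T84 cells) in pH 9 Tris/EDTA/glycerol/Triton buffer, incubated with compound and 80 nM final ^3H-anandamide for 1 h at rt. Released ^3H-ethanolamine separated through activated charcoal by centrifugation and counted by scintillation.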

spasticity = settings: Baker 2001; cited from earlier work

Compound	pIC50 (rat FAAH)	pIC50 (FAAH [6])	further results
O=C(CCCCCCc1ccccc1)c1ncc(-c2ccccn2)o1 [OL-135]	–	–	analgesic activity in hot plate test (thermal nociception [1]; rats, WO 04/033652): analgesic activity; inhibition of FAAH (FAAH [2]): potent inhibitor; analgesic activity in tail emersion test (thermal nociception [3]): analgesic activity
Cc1nc(-c2ccccc2)c(-c2ccccc2)n1CCCCCCNC(=O)Oc1ccccc1F [BMS-1]	–	–	analgesic effect in Chung spinal nerve ligation model (neuropathic pain): analgesic effect; analgesic effect in Hargraves test [4]: analgesic effect
NC(=O)c1cccc(-c2cccc(OC(=O)NC3CCCCC3)c2)c1 [URB-597]	–	–	efficacy in zero plus maze model of anxiety (anxiety): efficacy; analgesic efficacy in rat hot plate test (thermal nociception [1]; rat, Kathuria 2003): analgesic efficacy; analgesic efficacy in rat formalin test [5]: analgesic efficacy
O=C(Nc1cnc2cccnn12)N1CC(CCOc2cccc(Oc3ccc(Cl)cc3)c2)C1 [Example 1, 3-{2-[3-(4-Chloro-phenoxy)-phenoxy]-ethyl}-azetidine-1-carboxylic acid imidazo[1,2-b]pyridazin-3-ylamide]	8.40	8.30	–
O=C(Nc1cccnc1)N1CCC(CCOc2ccc(OC(F)(F)F)cc2)C1 (centres unmarked) [Example 60, 3-[2-(4-Trifluoromethoxy-phenoxy)-ethyl]-pyrrolidine-1-carboxylic acid pyridin-3-ylamide]	< 5.00	< 5.00	–
O=C(Nc1cccnc1)N1CC(CCOc2cc(Cl)cc(Cl)c2)C1 [Example 47, 3-[2-(3,5-Dichloro-phenoxy)-ethyl]-azetidine-1-carboxylic acid pyridin-3-ylamide]	6.60	6.00	–
CCCCOc1cccc(OCC2CN(C(=O)Nc3cccnc3)C2)c1 [Example 12, 3-(3-Butoxy-phenoxymethyl)-azetidine-1-carboxylic acid pyridin-3-ylamide]	< 5.00	6.52	–
O=C(Nc1cccnc1)N1CC(COc2ccc(Cl)c(Cl)c2)C1 [Example 21, 3-(3,4-Dichloro-phenoxymethyl)-azetidine-1-carboxylic acid pyridin-3-ylamide]	6.28	6.00	–
CCCCOc1cccc(OCCC2CN(C(=O)Nc3cccnc3)C2)c1 [Example 33, 3-[2-(3-Butoxy-phenoxy)-ethyl]-azetidine-1-carboxylic acid pyridin-3-ylamide]	5.70	7.47	–
O=C(Nc1cnccc1Cl)N1CC[C@H](COc2cccc(Oc3ccc(Cl)cc3)c2)C1 [Example 55, (3S)-3-[3-(4-Chloro-phenoxy)-phenoxymethyl]-pyrrolidine-1-carboxylic acid (4-chloro-pyridin-3-yl)-amide]	8.22	7.80	–
CCCCCCCCCCCCCCCCS(=O)(=O)F [AM374]	–	–	spasticity in CREAE mice (spasticity): significantly reduce spasticity
